The source of these data is patent US20200179487A1, “METHODS OF DIAGNOSIS AND TREATMENT OF PRE-ECLAMPSIA” (AGENCY FOR SCIENCE, TECHNOLOGY AND RESEARCH, priority 2016, published 2020).

The assay deals with APJ-expressing primary allantoic cultures. The assay can be described thus: Allantoic explants treated with ligands, digital droplet PCR of gene expression. It counts as cell-based, mouse. As to conditions: 2.5 μM, 12 hours, ddPCR, ELA versus APLN. The method, then: Allantoic explants were microdissected from 4-5 somite stage embryos on the morning of the 8th day of conception in dissection medium (DMEM+Hepes+7.5% FCS), and cultured in DMEM+NaHCO3+50% rat serum, on poly-L-lysine coated microwells (Ibidi). […] 12 hours later, the explants were harvested by direct lysis and RNA extracted with the Nucleospin RNA XS kit (Machery Nagel). cDNA was made using the SMARTer® Pico PCR cDNA Synthesis Kit (Clontech) and gene quantitation was performed using digital droplet PCR (Biorad) with EvaGreen and PrimeTime probes listed below: […]

As for “APLN: APLN-36 (Sigma); Apelin, the alternate ligand for APJ (LVQPRGSRNGPGPWQGGRRKFRRQRPRLSHKGPMPF; Apelin-36; UniProt Q9ULZ1 42-77, looked up)”, the “expression of Esm1” value is “opposite effects”. Moreover, the “expression of hypoxic response genes” value (Foxoa3 and Hif3α) is “opposite effects”.
